Laboratory results taken from patent US12134610B2, “Somatostatin subtype-2 receptor (SST2R) targeted therapeutics and uses thereof” (priority 2022, dated 2024).
Read-outs that look alike come from different tables or passages of the source. Starred links: 1 amine or outer side, 2 acyl side, 3 side chain; linkers in the order of their positions; H or OH if unused. Non-standard residues stand in square brackets, D forms with d. Residues, ends and D or L forms follow the SMILES beside them. *: point of attachment. X3 = Cc1cc(F)cc(-c2cnc(NCCN*)c(-c3nc4ccc(Cl)cc4[nH]3)c2N2CCC(N)CC2)c1; Dolaproine = CO[C@@H]([C@@H]1CCCN1)[C@@H](C)C(=O)O; Dil = CC[C@H](C)[C@H](NC)[C@@H](CC(=O)O)OC; PABC = O=C(OCc1ccc(N[*:1])cc1)[*:2]; Glutaryl = O=C(CCCC(=O)[*:2])[*:1]; X2 = C[C@@H](N*)[C@@H](O)c1ccccc1; Cit = NC(=O)NCCC[C@H](N)C(=O)O; NMeV = CN[C@H](C(=O)O)C(C)C; Sar = CNCC(=O)O

Legend:
Assay type in all cases: cell-based
[1] = biological target: T1, human somatostatin receptor subtype 2 (Homo sapiens, UniProt P30874); assay: Functional cAMP assay for SSTR2 agonists (HTRF) in CHO-K1 cells; details: CHO-K1 cells stably expressing human SST2, 20 min
T1 construct: expressed in transfected cells
T1 sequence (P30874 whole entry): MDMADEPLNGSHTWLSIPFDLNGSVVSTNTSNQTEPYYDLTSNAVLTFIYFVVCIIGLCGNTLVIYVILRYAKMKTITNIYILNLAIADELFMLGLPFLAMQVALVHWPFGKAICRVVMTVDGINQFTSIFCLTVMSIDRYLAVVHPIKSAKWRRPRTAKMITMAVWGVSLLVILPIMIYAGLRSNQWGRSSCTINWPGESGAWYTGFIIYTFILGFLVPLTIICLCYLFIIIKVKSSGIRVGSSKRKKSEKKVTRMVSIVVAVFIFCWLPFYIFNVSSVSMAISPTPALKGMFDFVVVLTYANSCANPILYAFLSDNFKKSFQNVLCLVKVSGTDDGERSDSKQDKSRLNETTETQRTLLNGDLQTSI
In short: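 CHO-K1 cells stably expressing receptor, plated 4 days before assay, treated 20 min at 37° C. with compound (typically 0-10,000 nM final) plus IBMX and 1.6 μM NKH477 to raise cAMP. HTRF read, 665/620 nm ratio; cAMP from standard curve, EC50 fitted.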

[2] = biological target: T2, SST2 (Homo sapiens, UniProt P30874); assay: PathHunter CHO-K1 SST2 internalization assay; details: PathHunter CHO-K1 SST2, 90 min
T2 construct: host or cells: PathHunter CHO-K1 SST2 cells
T2 sequence (P30874 whole entry): as above
In short: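 PathHunter CHO-K1 SST2 cells, seeded and grown 48 h, were exposed to 11-point 1:3 dilutions of SMDC (top final 10 uM) for 90 min at 37 C, 5% CO2. Beta-Glo luminescence was read after 60 min at room temperature. Background-corrected duplicate means were fitted by four-parameter nonlinear regression to give IC50.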

[3] = tested on: NCI-H524 (ATCC) human small cell lung cancer cells
In short: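 NCI-H524 cells (5,000/well) were exposed 24 h after plating to SMDC for 2 h, 11-point two-fold series from 1 uM. After washout they grew a further 70 h. Proliferation was read by CellTiter-Glo luminescence, % inhibition taken vs untreated control, and IC50 fitted by four-parameter nonlinear regression.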

[4] = 2 h treatment, washout, additional 70 h, read-out: H524 EC50

SMILES	EC50 ([1]; read-out: hSST2 cAMP Avg EC50) [nM]	EC50 ([2]; read-out: Internalization EC50) [nM]	EC50 ([3]; 2 h) [nM]	EC50 ([1]; hSST2 cAMP Avg EC50 (nM)) [nM]	EC50 ([2]; Internalization EC50 (nM)) [nM]	EC50 [3, 4] [nM]
CC[C@H](C)[C@@H]([C@@H](CC(=O)N1CCC[C@H]1[C@H](OC)[C@@H](C)C(=O)N[C@H](C)[C@@H](O)c1ccccc1)OC)N(C)C(=O)[C@@H](NC(=O)[C@H](C(C)C)N(C)C(=O)OCc1ccc(NC(=O)[C@H](CCCNC(N)=O)NC(=O)[C@@H](NC(=O)CCOCCNCCNc2ncc(-c3cc(C)cc(F)c3)c(N3CCC(N)CC3)c2-c2nc3ccc(Cl)cc3[nH]2)C(C)C)cc1)C(C)C [Compound 84]	0.51	9.7	24	–	–	–
CC[C@H](C)[C@@H]([C@@H](CC(=O)N1CCC[C@H]1[C@H](OC)[C@@H](C)C(=O)N[C@H](C)[C@@H](O)c1ccccc1)OC)N(C)C(=O)[C@@H](NC(=O)[C@H](C(C)C)N(C)C(=O)OCc1ccc(NC(=O)[C@H](C)NC(=O)[C@@H](NC(=O)CCOCCOCCOCCOCCC(=O)NCCNc2ncc(-c3cc(C)cc(F)c3)c(N3CCC(N)CC3)c2-c2nc3ccc(Cl)cc3[nH]2)C(C)C)cc1C(=O)NCCN)C(C)C [Compound 85]	0.25	13	2.2	–	–	–
CC[C@H](C)[C@@H]([C@@H](CC(=O)N1CCC[C@H]1[C@H](OC)[C@@H](C)C(=O)N[C@H](C)[C@@H](O)c1ccccc1)OC)N(C)C(=O)[C@@H](NC(=O)[C@H](C(C)C)N(C)C(=O)OCc1ccc(NC(=O)[C@H](C)NC(=O)[C@@H](NC(=O)CCOCCC(=O)NCCNc2ncc(-c3cc(C)cc(F)c3)c(N3CCC(N)CC3)c2-c2nc3ccc(Cl)cc3[nH]2)C(C)C)cc1C(=O)NCCN)C(C)C [Compound 86]	0.36	15	1.1	–	–	–
CC[C@H](C)[C@@H]([C@@H](CC(=O)N1CCC[C@H]1[C@H](OC)[C@@H](C)C(=O)N[C@H](C)[C@@H](O)c1ccccc1)OC)N(C)C(=O)[C@@H](NC(=O)[C@H](C(C)C)N(C)C(=O)OCc1ccc(NC(=O)[C@H](CCCNC(N)=O)NC(=O)[C@@H](CC(=O)CCOCCNCCNc2ncc(-c3cc(C)cc(F)c3)c(N3CCC(N)CC3)c2-c2nc3ccc(Cl)cc3[nH]2)C(C)C)cc1C(=O)NCCN)C(C)C [Compound 87]	0.4	26	42	–	–	–
CC[C@@]1(O)C(=O)OCc2c1cc1n(c2=O)Cc2c-1nc1cc(F)c(C)c3c1c2[C@@H](NC(=O)OCc1ccc(NC(=O)[C@H](CCCNC(N)=O)NC(=O)[C@@H](NC(=O)CCOCCC(=O)NCCNc2ncc(-c4cc(C)cc(F)c4)c(N4CCC(N)CC4)c2-c2nc4ccc(Cl)cc4[nH]2)C(C)C)cc1)CC3 [Compound 88]	–	–	–	0.3	1.3	55
CC[C@H](C)[C@@H]([C@@H](CC(=O)N1CCC[C@H]1[C@H](OC)[C@@H](C)C(=O)N[C@H](C)[C@@H](O)c1ccccc1)OC)N(C)C(=O)[C@@H](NC(=O)[C@H](C(C)C)N(C)C(=O)OCc1ccc(NC(=O)[C@H](C)NC(=O)[C@@H](NC(=O)CCOCCNCCNc2ncc(-c3cc(C)cc(F)c3)c(N3CCC(N)CC3)c2-c2nc3ccc(Cl)cc3[nH]2)C(C)C)cc1C(=O)NCCN)C(C)C [Compound 89]	0.71	66	60	–	–	–
CC[C@@]1(O)C(=O)OCc2c1cc1n(c2=O)Cc2c-1nc1cc(F)c(C)c3c1c2[C@@H](NC(=O)OCc1ccc(NC(=O)[C@H](CCCNC(N)=O)NC(=O)[C@@H](NC(=O)CCOCCC(=O)NCCNc2ncc(-c4cc(C)cc(F)c4)c(N4CCC(N)CC4)c2-c2nc4ccc(Cl)cc4[nH]2)C(C)C)cc1C(=O)NCCN)CC3 [Compound 90]	–	–	–	0.22	4.8	71
CC[C@@]1(O)C(=O)OCc2c1cc1n(c2=O)Cc2c-1nc1cc(F)c(C)c3c1c2[C@@H](NC(=O)OCc1ccc(NC(=O)[C@H](CCCNC(N)=O)NC(=O)[C@@H](NC(=O)CCOCCOCCOCCOCCC(=O)NCCNc2ncc(-c4cc(C)cc(F)c4)c(N4CCC(N)CC4)c2-c2nc4ccc(Cl)cc4[nH]2)C(C)C)cc1C(=O)NCCN)CC3 [Compound 91]	–	–	–	0.18	5.6	190
CC[C@H](C)[C@@H]([C@@H](CC(=O)N1CCC[C@H]1[C@H](OC)[C@@H](C)C(=O)N[C@H](C)[C@@H](O)c1ccccc1)OC)N(C)C(=O)[C@@H](NC(=O)[C@H](C(C)C)N(C)C(=O)OCc1ccc(NC(=O)[C@H](CCCNC(N)=O)NC(=O)[C@@H](NC(=O)CCOCCOCCOCCOCCNCCNc2ncc(-c3cc(C)cc(F)c3)c(N3CCC(N)CC3)c2-c2nc3ccc(Cl)cc3[nH]2)C(C)C)cc1)C(C)C [Compound 92]	0.56	27	110	–	–	–
CC[C@@]1(O)C(=O)OCc2c1cc1n(c2=O)Cc2c-1nc1cc(F)c(C)c3c1c2[C@@H](NC(=O)OCc1ccc(NC(=O)[C@H](CCCNC(N)=O)NC(=O)[C@@H](NC(=O)CN2CCN(CC(=O)O)CCN(CC(=O)NCCOCCOCCOCCOCCC(=O)NCCNc4ncc(-c5cc(C)cc(F)c5)c(N5CCC(N)CC5)c4-c4nc5ccc(Cl)cc5[nH]4)CC2)C(C)C)cc1)CC3 [Compound 93]	–	–	–	0.48	4.5	130
CC[C@@]1(O)C(=O)OCc2c1cc1n(c2=O)Cc2c-1nc1cc(F)c(C)c3c1c2[C@@H](NC(=O)OCc1ccc(NC(=O)[C@H](CCCNC(N)=O)NC(=O)[C@@H](NC(=O)[C@H](CCC(=O)O)NC(=O)CCOCCC(=O)NCCNc2ncc(-c4cc(C)cc(F)c4)c(N4CCC(N)CC4)c2-c2nc4ccc(Cl)cc4[nH]2)C(C)C)cc1C(=O)NCCN)CC3 [Compound 94]	–	–	–	0.16	2.4	260
CC[C@H](C)[C@@H]([C@@H](CC(=O)N1CCC[C@H]1[C@H](OC)[C@@H](C)C(=O)N[C@H](C)[C@@H](O)c1ccccc1)OC)N(C)C(=O)[C@@H](NC(=O)[C@H](C(C)C)N(C)C(=O)OCc1ccc(NC(=O)[C@H](CCCNC(N)=O)NC(=O)[C@@H](NC(=O)CCCC(=O)N(C)CC(=O)NCCNc2ncc(-c3cc(C)cc(F)c3)c(N3CCC(N)CC3)c2-c2nc3ccc(Cl)cc3[nH]2)C(C)C)cc1)C(C)C [Compound 95] ({X3-Sar-Glutaryl}-V[Cit][PABC][NMeV]V[Dil][Dolaproine]-X2)	0.26	2.2	5.1	–	–	–
CC[C@H](C)[C@@H]([C@@H](CC(=O)N1CCC[C@H]1[C@H](OC)[C@@H](C)C(=O)N[C@H](C)[C@@H](O)c1ccccc1)OC)N(C)C(=O)[C@@H](NC(=O)[C@H](C(C)C)N(C)C(=O)OCc1ccc(NC(=O)[C@H](CCCNC(N)=O)NC(=O)[C@@H](NC(=O)CCCC(=O)N(C)CC(=O)N(C)CC(=O)N(C)CC(=O)NCCNc2ncc(-c3cc(C)cc(F)c3)c(N3CCC(N)CC3)c2-c2nc3ccc(Cl)cc3[nH]2)C(C)C)cc1)C(C)C [Compound 96] ({X3-Sar-Sar-Sar-Glutaryl}-V[Cit][PABC][NMeV]V[Dil][Dolaproine]-X2)	0.47	4.9	21	–	–	–
CC[C@H](C)[C@@H]([C@@H](CC(=O)N1CCC[C@H]1[C@H](OC)[C@@H](C)C(=O)N[C@H](C)[C@@H](O)c1ccccc1)OC)N(C)C(=O)[C@@H](NC(=O)[C@H](C(C)C)N(C)C(=O)OCc1ccc(NC(=O)[C@H](CCCNC(N)=O)NC(=O)[C@@H](NC(=O)CCCC(=O)N(C)CC(=O)N(C)CC(=O)N(C)CC(=O)N(C)CC(=O)N(C)CC(=O)NCCNc2ncc(-c3cc(C)cc(F)c3)c(N3CCC(N)CC3)c2-c2nc3ccc(Cl)cc3[nH]2)C(C)C)cc1)C(C)C [Compound 97]	0.3	4.5	35	–	–	–
